Data on 20 compounds can be found in US20230036854A1, “HETEROCYCLIC SPIRO-COMPOUNDS AS AM2 RECEPTOR INHIBITORS” (THE UNIVERSITY OF SHEFFIELD, priority 2018, published 2023).

The target of the experiment is T1, AM2 receptor (1321N1 cells transfected with CALCRL+RAMP3) (Homo sapiens, UniProt O60896+Q16602).
T1 construct: host or cells: 1321N1 cells
T1 sequence (Q16602 23-461): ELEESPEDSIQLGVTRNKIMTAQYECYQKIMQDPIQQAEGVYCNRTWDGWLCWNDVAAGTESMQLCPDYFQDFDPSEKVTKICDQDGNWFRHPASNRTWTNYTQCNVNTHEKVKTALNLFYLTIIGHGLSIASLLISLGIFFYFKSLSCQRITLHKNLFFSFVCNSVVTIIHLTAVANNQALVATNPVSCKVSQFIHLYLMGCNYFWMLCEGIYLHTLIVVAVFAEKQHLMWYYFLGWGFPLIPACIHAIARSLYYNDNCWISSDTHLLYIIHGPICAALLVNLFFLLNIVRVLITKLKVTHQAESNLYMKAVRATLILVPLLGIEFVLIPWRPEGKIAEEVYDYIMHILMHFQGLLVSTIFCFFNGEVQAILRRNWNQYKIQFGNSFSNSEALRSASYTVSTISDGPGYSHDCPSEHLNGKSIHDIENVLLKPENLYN
T1 sequence (O60896 24-148): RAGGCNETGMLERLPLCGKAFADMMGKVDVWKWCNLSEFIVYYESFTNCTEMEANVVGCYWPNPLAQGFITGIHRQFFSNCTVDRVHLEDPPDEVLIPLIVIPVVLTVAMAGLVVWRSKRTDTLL
The experiment is described as follows: AM2 receptor inhibition, LANCE cAMP agonist-antagonist competition assay. Format: cell-based. As to conditions: inhibition of AM induced cAMP activation, read-out: AM2 D2 protocol: pIC50 (converted). In a few lines:
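1321N1 cells co-expressing CALCRL and RAMP3 (2500/well) were preincubated with compound for 30 min at room temperature, then stimulated with adrenomedullin at its EC50 dose for 15 min in HBSS/HEPES/BSA buffer, pH 7.4. cAMP was measured by LANCE TR-FRET and normalised to forskolin (100%) and vehicle (0%) controls.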
(In general: In TR-FRET formats the signal depends on donor and acceptor labels being close together.)
For `CCC1(C(=O)N(CC(=O)Nc2ccc3c(c2)C[C@@]2(C3)C(=O)Nc3ncccc32)Cc2ccccc2CNC)CCN(C(=O)c2cc(C(C)(C)C)nn2C)CC1` [Example 92, (R)-1-(3-(tert-Butyl)-1-methyl-1H-pyrazole-5-carbonyl)-4-ethyl-N-(2-((methylamino)methyl)benzyl)-N-(2-oxo-2-((2′-oxo-1,1′,2′,3-tetrahydrospiro[indene-2,3′-pyrrolo[2,3-b]pyridin]-5-yl)amino)ethyl)piperidine-4-carboxamide], the IC50 is 13.2 nM. With `CCC1(C(=O)N(CC(=O)Nc2ccc3c(c2)C[C@@]2(C3)C(=O)Nc3ncccc32)Cc2ccccc2CNC)CCN(C(=O)[C@@H]2COCCN2)CC1` [Example 93, 4-Ethyl-N-(2-((methylamino)methyl)benzyl)-1-((S)-morpholine-3-carbonyl)-N-(2-oxo-2-(((R)-2′-oxo-1,1′,2′,3-tetrahydrospiro[indene-2,3′-pyrrolo[2,3-b]pyridin]-5-yl)amino)ethyl)piperidine-4-carboxamide], the IC50 is 18.6 nM.

With `CCC1(C(=O)N(CC(=O)Nc2ccc3c(c2)C[C@@]2(C3)C(=O)Nc3ncccc32)Cc2ccccc2CNC)CCN(C(=O)[C@H](C)NC)CC1` [Example 94, 4-Ethyl-N-(2-((methylamino)methyl)benzyl)-1-((S)-2-(methylamino)propanoyl)-N-(2-oxo-2-(((R)-2′-oxo-1,1′,2′,3-tetrahydrospiro[indene-2,3′-pyrrolo[2,3-b]pyridin]-5-yl)amino)ethyl)piperidine-4-carboxamide], the IC50 was 15.1 nM. In the case of `CCC1(C(=O)N(CC(=O)Nc2ccc3c(c2)C[C@@]2(C3)C(=O)Nc3ncccc32)Cc2ccccc2CNC)CCN(C(=O)CN2CCC(F)(F)CC2)CC1` [Example 95, (R)-1-(2-(4,4-Difluoropiperidin-1-yl)acetyl)-4-ethyl-N-(2-((methylamino)methyl)benzyl)-N-(2-oxo-2-((2′-oxo-1,1′,2′,3-tetrahydrospiro[indene-2,3′-pyrrolo[2,3-b]pyridin]-5-yl)amino)ethyl)piperidine-4-carboxamide] it was 12.6 nM; in that of `CCC1(C(=O)N(CC(=O)Nc2ccc3c(c2)C[C@@]2(C3)C(=O)Nc3ncccc32)Cc2ccccc2CNC)CCN(C(=O)COCCOCCOCCOCCOC)CC1` [Example 96, (R)-4-Ethyl-1-(2,5,8,11,14-pentaoxahexadecan-16-oyl)-N-(2-((methylamino)methyl)benzyl)-N-(2-oxo-2-((2′-oxo-1,1′,2′,3-tetrahydrospiro[indene-2,3′-pyrrolo[2,3-b]pyridin]-5-yl)amino)ethyl)piperidine-4-carboxamide], 24.5 nM. As to `CCC1(C(=O)N(CC(=O)Nc2ccc3c(c2)C[C@@]2(C3)C(=O)Nc3ncccc32)Cc2ccccc2CNC)CCN(C(=O)COCCOCCOCCOCCOCCOCCOC)CC1` [Example 97, (R)-1-(2,5,8,11,14,17,20-Heptaoxadocosan-22-oyl)-4-ethyl-N-(2-((methylamino)methyl)benzyl)-N-(2-oxo-2-((2′-oxo-1,1′,2′,3-tetrahydrospiro[indene-2,3′-pyrrolo[2,3-b]pyridin]-5-yl)amino)ethyl)piperidine-4-carboxamide], the IC50 was 8.71 nM.

In the case of `CCC1(C(=O)N(CC(=O)Nc2ccc3c(c2)C[C@@]2(C3)C(=O)Nc3ncccc32)Cc2ccccc2CNC)CCN(C(=O)C(C)(C)C(F)(F)F)CC1` [Example 98, (R)-4-Ethyl-N-(2-((methylamino)methyl)benzyl)-N-(2-oxo-2-((2′-oxo-1,1′,2′,3-tetrahydrospiro[indene-2,3′-pyrrolo[2,3-b]pyridin]-5-yl)amino)ethyl)-1-(3,3,3-trifluoro-2,2-dimethylpropanoyl)piperidine-4-carboxamide], the IC50 was 61.7 nM. Take `CCC1(C(=O)N(CC(=O)Nc2ccc3c(c2)C[C@@]2(C3)C(=O)Nc3ncccc32)Cc2ccccc2CNC)CCN(C(=O)N(C)C)CC1` [Example 99, (R)-4-Ethyl-N1, N1-dimethyl-N4-(2-((methylamino)methyl)benzyl)-N4-(2-oxo-2-((2′-oxo-1,1′,2′,3-tetrahydrospiro[indene-2,3′-pyrrolo[2,3-b]pyridin]-5-yl)amino)ethyl)piperidine-1,4-dicarboxamide]: the IC50 was 1.45 nM. On to `CCC1(C(=O)N(CC(=O)Nc2ccc3c(c2)C[C@@]2(C3)C(=O)Nc3ncccc32)Cc2ccccc2CNC)CCN(C(=O)NC)CC1` [Example 100], for which the IC50 is 4.07 nM.

In the case of `CCC1(C(=O)N(CC(=O)Nc2ccc3c(c2)C[C@@]2(C3)C(=O)Nc3ncccc32)Cc2ccccc2CNC)CCN(C(=O)NC(C)C)CC1` [Example 101, (R)-4-Ethyl-N1-isopropyl-N4-(2-((methylamino)methyl)benzyl)-N4-(2-oxo-2-((2′-oxo-1,1′,2′,3-tetrahydrospiro[indene-2,3′-pyrrolo[2,3-b]pyridin]-5-yl)amino)ethyl)piperidine-1,4-dicarboxamide], the IC50 was 1.41 nM.

Regarding `CCC1(C(=O)N(CC(=O)Nc2ccc3c(c2)C[C@@]2(C3)C(=O)Nc3ncccc32)Cc2ccccc2CNC)CCN(C(=O)N2CCCC2)CC1` [Example 102, (R)-4-Ethyl-N-(2-((methylamino)methyl)benzyl)-N-(2-oxo-2-((2′-oxo-1,1′,2′,3-tetrahydrospiro[indene-2,3′-pyrrolo[2,3-b]pyridin]-5-yl)amino)ethyl)-1-(pyrrolidine-1-carbonyl)piperidine-4-carboxamide], the IC50 was 6.92 nM.

On to `CCC1(C(=O)N(CC(=O)Nc2ccc3c(c2)C[C@@]2(C3)C(=O)Nc3ncccc32)Cc2ccccc2CNC)CCN(C(=O)N2CCOCC2)CC1` [Example 103, (R)-4-Ethyl-N-(2-((methylamino)methyl)benzyl)-1-(morpholine-4-carbonyl)-N-(2-oxo-2-((2′-oxo-1,1′,2′,3-tetrahydrospiro[indene-2,3′-pyrrolo[2,3-b]pyridin]-5-yl)amino)ethyl)piperidine-4-carboxamide], for which the IC50 was 2.19 nM.

In the case of `CCC1(C(=O)N(CC(=O)Nc2ccc3c(c2)C[C@@]2(C3)C(=O)Nc3ncccc32)Cc2ccccc2CNC)CCN(C(=O)N2CCCCC2)CC1` [Example 104, (R)-4-Ethyl-N-(2-((methylamino)methyl)benzyl)-N-(2-oxo-2-((2′-oxo-1,1′,2′,3-tetrahydrospiro[indene-2,3′-pyrrolo[2,3-b]pyridin]-5-yl)amino)ethyl)-1-(piperidine-1-carbonyl) piperidine-4-carboxamide], the IC50 is 107 nM. In the case of `CCC1(C(=O)N(CC(=O)Nc2ccc3c(c2)C[C@@]2(C3)C(=O)Nc3ncccc32)Cc2ccccc2CNC)CCN(C(=O)NC23CC(C2)C3)CC1` [Example 105], the IC50 was 50.1 nM.

Take `CCC1(C(=O)N(CC(=O)Nc2ccc3c(c2)C[C@@]2(C3)C(=O)Nc3ncccc32)Cc2ccccc2CNC)CCN(C(=O)N2CCC2)CC1` [Example 106, (R)-1-(Azetidine-1-carbonyl)-4-ethyl-N-(2-((methylamino)methyl)benzyl)-N-(2-oxo-2-((2′-oxo-1,1′,2′,3-tetrahydrospiro[indene-2,3′-pyrrolo[2,3-b]pyridin]-5-yl)amino)ethyl)piperidine-4-carboxamide]: the IC50 was 11.7 nM. `CCC1(C(=O)N(CC(=O)Nc2ccc3c(c2)C[C@@]2(C3)C(=O)Nc3ncccc32)Cc2ccccc2CNC)CCN(C(=O)N2CCC(F)(F)CC2)CC1` [Example 107, (R)-1-(4,4-Difluoropiperidine-1-carbonyl)-4-ethyl-N-(2-((methylamino)methyl)benzyl)-N-(2-oxo-2-((2′-oxo-1,1′,2′,3-tetrahydrospiro[indene-2,3′-pyrrolo[2,3-b]pyridin]-5-yl)amino)ethyl)piperidine-4-carboxamide]: the IC50 was 57.5 nM. With `CCC1(C(=O)N(CC(=O)Nc2ccc3c(c2)C[C@@]2(C3)C(=O)Nc3ncccc32)Cc2ccccc2CNC)CCN(C(=O)N2CCC(F)(F)C2)CC1` [Example 108, (R)-1-(3,3-Difluoropyrrolidine-1-carbonyl)-4-ethyl-N-(2-((methylamino)methyl)benzyl)-N-(2-oxo-2-((2′-oxo-1,1′,2′,3-tetrahydrospiro[indene-2,3′-pyrrolo[2,3-b]pyridin]-5-yl)amino)ethyl)piperidine-4-carboxamide], the IC50 was 24 nM. As to `CCC1(C(=O)N(CC(=O)Nc2ccc3c(c2)C[C@@]2(C3)C(=O)Nc3ncccc32)Cc2ccccc2CNC)CCN(C(=O)N2CC(F)(F)C2)CC1` [Example 109, (R)-1-(3,3-Difluoroazetidine-1-carbonyl)-4-ethyl-N-(2-((methylamino)methyl)benzyl)-N-(2-oxo-2-((2′-oxo-1,1′,2′,3-tetrahydrospiro[indene-2,3′-pyrrolo[2,3-b]pyridin]-5-yl)amino)ethyl)piperidine-4-carboxamide], the IC50 is 7940 nM.

Turning to `CCC1(C(=O)N(CC(=O)Nc2ccc3c(c2)C[C@@]2(C3)C(=O)Nc3ncccc32)Cc2ccccc2CNC)CCN(C(=O)N2CCC(C(F)(F)F)CC2)CC1` [Example 110, (R)-4-Ethyl-N-(2-((methylamino)methyl)benzyl)-N-(2-oxo-2-((2′-oxo-1,1′,2′,3-tetrahydrospiro[indene-2,3′-pyrrolo[2,3-b]pyridin]-5-yl)amino)ethyl)-1-(4-(trifluoromethyl)piperidine-1-carbonyl)piperidine-4-carboxamide], the IC50 was 93.3 nM. As to `CCC1(C(=O)N(CC(=O)Nc2ccc3c(c2)C[C@@]2(C3)C(=O)Nc3ncccc32)Cc2ccccc2CNC)CCN(C(=O)N2CC(F)C2)CC1` [Example 111, (R)-4-Ethyl-1-(3-fluoroazetidine-1-carbonyl)-N-(2-((methylamino)methyl)benzyl)-N-(2-oxo-2-((2′-oxo-1,1′,2′,3-tetrahydrospiro[indene-2,3′-pyrrolo[2,3-b]pyridin]-5-yl)amino)ethyl)piperidine-4-carboxamide], the IC50 was 15.5 nM.
